The source of these data is patent US20150202313A1, “Macromolecular Prodrugs for Hard Tissue and Methods of Use Thereof” (New York Society for The Ruptured and Crippled Maintaining …, priority 2012, published 2015).

Data set [1] concerns open fracture mouse model (femoral shaft fracture). Description: Therapeutic efficacy in open fracture mouse model, micro-CT analysis of callus. Type of data set: in vivo, Swiss Webster mice. On the procedure:
Ten-week-old male Swiss Webster mice were purchased from Charles River Laboratories, and maintained under standard housing conditions. The animals were acclimated for at least 1 week before any experimental procedure. Under general anesthesia with isoflurane, the hips, thighs, and knees on the right side of the animal were prepared with Betadine (povidone-iodine) solution. A 1.0 cm right medial parapatellar incision was made on the right knee. The patella was dislocated laterally to expose the femoral condyles. A 25-guage needle was introduced into the canal and driven in a retrograde intramedullary fashion to the level of the greater trochanter. Distally, the needle was cut flush with the cortex (length was about 1.4 cm) so as not to interfere with motion of the knee. […] Postoperatively, mice were placed on clean paper towels in their cages (to avoid inhalation/aspiration of the bedding material) and monitored until the animals were fully awake. The mice were monitored for signs of pain with analgesia and antibiotics given according to established protocol. […]
For the quantitative analysis, we specifically focused on the site of fracture callus formation. […] The following parameters were measured and calculated: callus volume (Cl.V), callus thickness (Cl.Th), callus separation (Cl.Sp) and the ratio of callus surface to volume (Cl.S/Cl.V). […]

Data set [2] shares this test system. Description: Therapeutic efficacy in open fracture mouse model, Safranin O histology of callus. Type of data set: in vivo, Swiss Webster mice. The following applies: 21 days post fracture. On the procedure: Ten-week-old male Swiss Webster mice were purchased from Charles River Laboratories, and maintained under standard housing conditions. The animals were acclimated for at least 1 week before any experimental procedure. Under general anesthesia with isoflurane, the hips, thighs, and knees on the right side of the animal were prepared with Betadine (povidone-iodine) solution. A 1.0 cm right medial parapatellar incision was made on the right knee. The patella was dislocated laterally to expose the femoral condyles. A 25-guage needle was introduced into the canal and driven in a retrograde intramedullary fashion to the level of the greater trochanter. Distally, the needle was cut flush with the cortex (length was about 1.4 cm) so as not to interfere with motion of the knee. Controlled unilateral transverse femoral shaft fractures were created with a #15 blade. […] Postoperatively, mice were placed on clean paper towels in their cages (to avoid inhalation/aspiration of the bedding material) and monitored until the animals were fully awake. The mice were monitored for signs of pain with analgesia and antibiotics given according to established protocol. […]
After micro-CT analysis, the fractured femurs were decalcified using 14% EDTA at room temperature for 30 days. […] The specimens were then paraffin embedded, sectioned (5 μm thickness), stained with Safranin 0 and histologically evaluated.

The nature of data set [3]: Weight loss side effect during treatment. Particulars: in vivo. From the text:
Eighteen 10-week-old male Swiss Webster mice were osteotomized and randomly assigned into three groups (6 mice/group). […] The overall SIM doses given to the SIMA and SIM/SIM-mPEG were equivalent. All mice were euthanized 21 days post osteotomy.

With `CCC(C)(C)C(=O)O[C@H]1C[C@@H](C)C=C2C=C[C@H](C)[C@H](CC[C@@H](O)C[C@@H](O)CC(=O)O)[C@H]21` [SIMA, simvastatin acid], the “quantitative morphometric indices of callus (micro-CT), comparison with CON” value in data set [1] (21 days post osteotomy, SIMA equiv. SIM 6 mg/kg/day i.p., micelles equiv. SIM 42 mg/kg/wk i.v.) is listed as “No statistical significance”. Further, the “mineralization of the fracture callus (micro-CT images)” value in data set [1] (21 days post-fracture) is recorded as “less mineralized callus formation at the fracture site”. Moreover, in data set [2], the “histological features of callus sections (Safranin O)” value was “intermediate stage between CON and SIM/SIM-mPEG groups”. Besides, the “side effect of weight loss” value in data set [3] was “weight loss observed”.
